In data set [1] the target is PIM1 (Serine/threonine-protein kinase pim-1) (Homo sapiens, UniProt P11309). In words: Inhibition of human PIM1 at 1 uM measured after 30 mins by [gamma-33P]-ATP assay.
Data set [2] has as its target VEGFR1 (Vascular endothelial growth factor receptor 1) (Homo sapiens, UniProt P17948). In words: Inhibition of human VEGFR1 at 1 uM measured after 30 mins by [gamma-33P]-ATP assay. The note with it: human VEGFR1 kinase.
The next data set relates to Plasmodium falciparum. As to the kind of experiment: Antimalarial activity against chloroquine-sensitive plasmodium falciparum 3D7 infected in human erythrocytes assessed as parasite growth inhibition measured after 72 hrs by SYBR green dye based fluorescence analysis. Format: functional, organism-based. The note with it: 3D7, Erythrocyte.
The nature of data set [3]: Effective permeability of the compound in PBS at pH 7.4 at 10 uM incubated for 5 hrs by PAMPA based UPLC-MS/MS analysis. Format: ADME. The note with it: read-out: permeability. On the technique in general: In PAMPA a lipid-coated filter parts donor from acceptor wells.
Data set [4] concerns the target ERK1 (Mitogen-activated protein kinase 3) (Homo sapiens, UniProt P27361). As to the kind of experiment: Inhibition of human ERK1 at 1 uM measured after 30 mins by [gamma-33P]-ATP assay.
Data set [5] has as its target CDK2 (Cyclin-dependent kinase 2) (Homo sapiens, UniProt P24941). As to the kind of experiment: Inhibition of human CDK2 at 1 uM measured after 30 mins by [gamma-33P]-ATP assay.
Data set [6] has as its target HER4 (Receptor tyrosine-protein kinase erbB-4) (Homo sapiens, UniProt Q15303). In words: Inhibition of human HER4 at 1 uM measured after 30 mins by [gamma-33P]-ATP assay.
Data set [7] addresses T1, JAK3 (Tyrosine-protein kinase JAK3) (Homo sapiens, UniProt P52333).
T1 sequence (P52333 whole entry): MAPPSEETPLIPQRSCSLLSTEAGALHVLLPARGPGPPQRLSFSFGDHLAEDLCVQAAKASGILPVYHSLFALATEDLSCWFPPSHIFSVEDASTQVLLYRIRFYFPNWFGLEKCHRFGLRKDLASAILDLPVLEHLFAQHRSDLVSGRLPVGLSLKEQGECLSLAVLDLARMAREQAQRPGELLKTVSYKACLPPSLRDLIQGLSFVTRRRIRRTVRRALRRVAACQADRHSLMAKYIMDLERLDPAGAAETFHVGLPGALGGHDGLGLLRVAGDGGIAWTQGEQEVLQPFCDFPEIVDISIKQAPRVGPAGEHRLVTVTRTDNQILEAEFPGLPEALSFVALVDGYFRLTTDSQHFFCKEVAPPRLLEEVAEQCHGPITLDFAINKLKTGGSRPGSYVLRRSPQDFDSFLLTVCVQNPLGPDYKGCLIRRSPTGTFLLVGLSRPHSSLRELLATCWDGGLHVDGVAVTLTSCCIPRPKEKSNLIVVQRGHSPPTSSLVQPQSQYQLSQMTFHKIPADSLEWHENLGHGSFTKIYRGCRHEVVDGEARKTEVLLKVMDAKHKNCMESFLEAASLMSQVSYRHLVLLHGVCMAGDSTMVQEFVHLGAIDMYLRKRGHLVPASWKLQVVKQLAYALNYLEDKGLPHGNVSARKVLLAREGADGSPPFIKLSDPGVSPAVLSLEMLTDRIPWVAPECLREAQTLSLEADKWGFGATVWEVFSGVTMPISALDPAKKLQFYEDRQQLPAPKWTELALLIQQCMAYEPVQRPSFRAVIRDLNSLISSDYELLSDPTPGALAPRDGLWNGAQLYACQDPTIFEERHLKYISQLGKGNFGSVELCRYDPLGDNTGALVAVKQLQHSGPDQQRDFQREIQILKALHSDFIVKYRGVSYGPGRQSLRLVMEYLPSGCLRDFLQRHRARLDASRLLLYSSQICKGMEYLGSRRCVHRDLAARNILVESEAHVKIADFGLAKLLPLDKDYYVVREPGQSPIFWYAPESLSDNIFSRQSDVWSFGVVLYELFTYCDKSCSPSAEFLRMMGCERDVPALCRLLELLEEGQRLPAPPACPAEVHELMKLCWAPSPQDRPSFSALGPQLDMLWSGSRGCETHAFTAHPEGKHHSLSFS
As to the kind of experiment: Inhibition of human JAK3 at 1 uM measured after 30 mins by [gamma-33P]-ATP assay.

In data set [8] the target is MEKK1 (Mitogen-activated protein kinase kinase kinase 1) (Homo sapiens, UniProt Q13233). In words: Inhibition of human MEKK1 at 1 uM measured after 30 mins by [gamma-33P]-ATP assay.
The test system of the next data set is HepG2. In words: Cytotoxicity against human HepG2 cells assessed as inhibition of cell growth measured after 72 hrs by resazurin dye based fluorescence assay. The note with it: HepG2, 72 h. A general note: The colour change of resazurin is a common sign of viable cells or microbes.
The nature of data set [9]: Intrinsic clearance in human liver microsomes at 0.5 uM in the presence of NADPH measured upto 30 mins by UPLC-MS/MS analysis. Format: ADME, Microsome. The note with it: 0.5 h. (Liver microsomes are a subcellular fraction often used to study metabolism.)
Data set [10] concerns the target JNK1 (Mitogen-activated protein kinase 8) (Homo sapiens, UniProt P45983). As to the kind of experiment: Inhibition of human JNK1 at 1 uM measured after 30 mins by [gamma-33P]-ATP assay.
Data set [11] can be described thus: 1-octanol/water partition coefficient, logD of the compound at pH 7.4 measured after 6 hrs by shake flask technique based HPLC-UV analysis. The data set is classed as physicochemical.
Data set [12] is described as follows: Aqueous solubility of compound in PBS at pH 7.4 by HPLC-UV analysis. The data set is classed as physicochemical.
A further data set has as its target T2, Aurora kinase A (Homo sapiens, UniProt O14965).
T2 sequence (O14965 whole entry): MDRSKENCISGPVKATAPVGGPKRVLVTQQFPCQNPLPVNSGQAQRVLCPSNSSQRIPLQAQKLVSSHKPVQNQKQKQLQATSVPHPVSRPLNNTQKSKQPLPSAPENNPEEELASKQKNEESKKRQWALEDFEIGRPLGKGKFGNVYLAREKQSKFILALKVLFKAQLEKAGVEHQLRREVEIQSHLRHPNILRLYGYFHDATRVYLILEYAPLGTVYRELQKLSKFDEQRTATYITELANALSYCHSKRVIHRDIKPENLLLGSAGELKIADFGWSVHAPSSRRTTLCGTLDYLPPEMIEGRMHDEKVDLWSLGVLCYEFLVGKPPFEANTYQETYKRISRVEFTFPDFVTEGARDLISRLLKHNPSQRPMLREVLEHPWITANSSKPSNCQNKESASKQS
In words: Inhibition of human Aurora A at 1 uM measured after 30 mins by [gamma-33P]-ATP assay.

The nature of data set [13]: Selectivity index, ratio of IC50 for cytotoxicity against human HepG2 cells to IC50 for antimalarial activity against chloroquine-sensitive plasmodium falciparum 3D7 infected in human erythrocytes. The data set is classed as toxicity, cell-based. The note with it: read-out: Ratio IC50.
Data set [14] is described as follows: Cytotoxicity against human HepG2 cells assessed as inhibition of cell viability relative to control. The data set is classed as cell-based. The note with it: read-out: INH.

Values after ≈ are worked out from the molar mass of the structure shown.

ERK1 (Mitogen-activated protein kinase 3), sequence (P27361 whole entry): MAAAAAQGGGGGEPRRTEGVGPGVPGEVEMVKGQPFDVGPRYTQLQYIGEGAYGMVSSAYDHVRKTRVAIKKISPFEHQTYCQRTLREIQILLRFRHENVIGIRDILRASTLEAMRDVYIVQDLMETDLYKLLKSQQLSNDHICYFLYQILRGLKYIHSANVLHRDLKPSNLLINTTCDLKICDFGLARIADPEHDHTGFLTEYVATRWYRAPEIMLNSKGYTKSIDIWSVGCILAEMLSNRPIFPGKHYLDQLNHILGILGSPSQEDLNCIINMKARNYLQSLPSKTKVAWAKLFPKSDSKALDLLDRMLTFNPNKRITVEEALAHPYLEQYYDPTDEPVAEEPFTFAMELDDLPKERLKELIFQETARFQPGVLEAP
HER4 (Receptor tyrosine-protein kinase erbB-4), sequence (Q15303 whole entry): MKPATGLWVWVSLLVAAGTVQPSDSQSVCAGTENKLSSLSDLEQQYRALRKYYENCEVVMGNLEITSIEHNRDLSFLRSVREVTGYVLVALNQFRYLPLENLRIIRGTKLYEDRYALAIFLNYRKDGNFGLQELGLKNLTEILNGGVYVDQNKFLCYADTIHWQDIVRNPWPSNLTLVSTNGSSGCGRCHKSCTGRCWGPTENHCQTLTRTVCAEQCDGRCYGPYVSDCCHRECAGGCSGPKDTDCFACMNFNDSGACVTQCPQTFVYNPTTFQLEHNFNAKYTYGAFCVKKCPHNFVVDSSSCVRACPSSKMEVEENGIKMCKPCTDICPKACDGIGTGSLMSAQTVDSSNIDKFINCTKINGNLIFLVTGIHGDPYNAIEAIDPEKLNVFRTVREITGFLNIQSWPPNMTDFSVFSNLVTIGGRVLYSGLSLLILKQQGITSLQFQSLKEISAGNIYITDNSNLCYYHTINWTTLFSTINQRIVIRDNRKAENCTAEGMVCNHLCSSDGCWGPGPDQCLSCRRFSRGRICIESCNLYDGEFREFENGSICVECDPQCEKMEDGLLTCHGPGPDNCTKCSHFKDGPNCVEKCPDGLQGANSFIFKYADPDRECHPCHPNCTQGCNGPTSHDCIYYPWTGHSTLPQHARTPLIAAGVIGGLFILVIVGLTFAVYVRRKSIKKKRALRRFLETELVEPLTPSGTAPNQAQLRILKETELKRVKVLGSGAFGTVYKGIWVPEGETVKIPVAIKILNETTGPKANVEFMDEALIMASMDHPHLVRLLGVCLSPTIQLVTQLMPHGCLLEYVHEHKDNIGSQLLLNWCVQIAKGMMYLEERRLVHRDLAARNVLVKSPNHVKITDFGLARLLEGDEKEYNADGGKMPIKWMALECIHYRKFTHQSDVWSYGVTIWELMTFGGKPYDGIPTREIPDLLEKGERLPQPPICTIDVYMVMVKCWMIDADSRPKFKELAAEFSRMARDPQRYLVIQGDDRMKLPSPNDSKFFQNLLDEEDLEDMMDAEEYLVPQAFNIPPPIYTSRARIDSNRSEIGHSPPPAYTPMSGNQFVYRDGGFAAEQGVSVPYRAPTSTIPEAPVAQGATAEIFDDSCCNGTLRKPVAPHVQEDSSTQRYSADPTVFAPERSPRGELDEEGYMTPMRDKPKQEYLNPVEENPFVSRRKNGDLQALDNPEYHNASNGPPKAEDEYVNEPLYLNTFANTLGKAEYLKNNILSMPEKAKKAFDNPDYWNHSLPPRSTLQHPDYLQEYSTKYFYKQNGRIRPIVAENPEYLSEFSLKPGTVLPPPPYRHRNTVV
VEGFR1 (Vascular endothelial growth factor receptor 1), sequence (P17948 whole entry): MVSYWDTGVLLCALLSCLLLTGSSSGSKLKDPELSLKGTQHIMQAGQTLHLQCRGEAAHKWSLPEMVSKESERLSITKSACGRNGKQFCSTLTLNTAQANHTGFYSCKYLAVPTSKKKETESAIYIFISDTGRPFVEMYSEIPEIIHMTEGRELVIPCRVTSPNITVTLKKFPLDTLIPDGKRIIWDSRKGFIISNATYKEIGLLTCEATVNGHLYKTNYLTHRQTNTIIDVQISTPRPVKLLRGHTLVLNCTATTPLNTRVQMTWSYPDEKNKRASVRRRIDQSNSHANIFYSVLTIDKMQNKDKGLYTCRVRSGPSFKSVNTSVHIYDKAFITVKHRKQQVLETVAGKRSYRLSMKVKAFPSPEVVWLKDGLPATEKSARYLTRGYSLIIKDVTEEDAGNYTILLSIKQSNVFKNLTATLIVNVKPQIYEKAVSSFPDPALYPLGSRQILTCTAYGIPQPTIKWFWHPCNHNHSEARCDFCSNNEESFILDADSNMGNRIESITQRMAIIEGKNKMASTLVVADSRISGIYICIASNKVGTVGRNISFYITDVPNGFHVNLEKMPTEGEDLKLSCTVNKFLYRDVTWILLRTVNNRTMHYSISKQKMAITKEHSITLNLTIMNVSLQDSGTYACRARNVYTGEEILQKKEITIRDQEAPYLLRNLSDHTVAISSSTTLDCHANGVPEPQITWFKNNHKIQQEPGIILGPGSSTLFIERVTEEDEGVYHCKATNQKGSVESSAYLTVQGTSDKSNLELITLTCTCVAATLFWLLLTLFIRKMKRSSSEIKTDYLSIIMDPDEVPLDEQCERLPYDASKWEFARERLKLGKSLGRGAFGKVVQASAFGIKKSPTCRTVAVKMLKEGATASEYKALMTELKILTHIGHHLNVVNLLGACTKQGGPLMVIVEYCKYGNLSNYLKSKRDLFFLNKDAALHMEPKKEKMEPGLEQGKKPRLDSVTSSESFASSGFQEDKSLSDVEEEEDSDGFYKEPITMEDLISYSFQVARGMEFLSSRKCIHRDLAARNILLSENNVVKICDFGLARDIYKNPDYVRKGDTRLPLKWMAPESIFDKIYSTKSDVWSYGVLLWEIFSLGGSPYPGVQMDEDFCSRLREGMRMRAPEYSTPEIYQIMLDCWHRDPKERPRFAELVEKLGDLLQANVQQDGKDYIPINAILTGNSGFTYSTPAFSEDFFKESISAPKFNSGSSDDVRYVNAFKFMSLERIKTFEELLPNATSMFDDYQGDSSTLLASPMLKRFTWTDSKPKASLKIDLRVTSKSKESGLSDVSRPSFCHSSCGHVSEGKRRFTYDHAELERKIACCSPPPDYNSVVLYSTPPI
JNK1 (Mitogen-activated protein kinase 8), sequence (P45983 whole entry): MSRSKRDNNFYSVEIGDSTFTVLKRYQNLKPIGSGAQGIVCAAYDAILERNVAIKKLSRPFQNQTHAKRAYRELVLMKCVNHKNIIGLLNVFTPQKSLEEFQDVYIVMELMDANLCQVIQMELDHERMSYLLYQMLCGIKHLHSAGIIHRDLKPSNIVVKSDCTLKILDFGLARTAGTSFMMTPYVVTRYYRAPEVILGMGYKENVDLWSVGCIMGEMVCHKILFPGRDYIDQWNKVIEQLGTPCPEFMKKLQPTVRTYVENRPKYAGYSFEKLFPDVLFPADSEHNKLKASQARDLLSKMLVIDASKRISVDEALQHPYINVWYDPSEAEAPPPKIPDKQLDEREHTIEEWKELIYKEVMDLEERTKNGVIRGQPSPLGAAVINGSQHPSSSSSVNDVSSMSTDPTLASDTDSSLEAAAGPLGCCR
MEKK1 (Mitogen-activated protein kinase kinase kinase 1), sequence (Q13233 whole entry): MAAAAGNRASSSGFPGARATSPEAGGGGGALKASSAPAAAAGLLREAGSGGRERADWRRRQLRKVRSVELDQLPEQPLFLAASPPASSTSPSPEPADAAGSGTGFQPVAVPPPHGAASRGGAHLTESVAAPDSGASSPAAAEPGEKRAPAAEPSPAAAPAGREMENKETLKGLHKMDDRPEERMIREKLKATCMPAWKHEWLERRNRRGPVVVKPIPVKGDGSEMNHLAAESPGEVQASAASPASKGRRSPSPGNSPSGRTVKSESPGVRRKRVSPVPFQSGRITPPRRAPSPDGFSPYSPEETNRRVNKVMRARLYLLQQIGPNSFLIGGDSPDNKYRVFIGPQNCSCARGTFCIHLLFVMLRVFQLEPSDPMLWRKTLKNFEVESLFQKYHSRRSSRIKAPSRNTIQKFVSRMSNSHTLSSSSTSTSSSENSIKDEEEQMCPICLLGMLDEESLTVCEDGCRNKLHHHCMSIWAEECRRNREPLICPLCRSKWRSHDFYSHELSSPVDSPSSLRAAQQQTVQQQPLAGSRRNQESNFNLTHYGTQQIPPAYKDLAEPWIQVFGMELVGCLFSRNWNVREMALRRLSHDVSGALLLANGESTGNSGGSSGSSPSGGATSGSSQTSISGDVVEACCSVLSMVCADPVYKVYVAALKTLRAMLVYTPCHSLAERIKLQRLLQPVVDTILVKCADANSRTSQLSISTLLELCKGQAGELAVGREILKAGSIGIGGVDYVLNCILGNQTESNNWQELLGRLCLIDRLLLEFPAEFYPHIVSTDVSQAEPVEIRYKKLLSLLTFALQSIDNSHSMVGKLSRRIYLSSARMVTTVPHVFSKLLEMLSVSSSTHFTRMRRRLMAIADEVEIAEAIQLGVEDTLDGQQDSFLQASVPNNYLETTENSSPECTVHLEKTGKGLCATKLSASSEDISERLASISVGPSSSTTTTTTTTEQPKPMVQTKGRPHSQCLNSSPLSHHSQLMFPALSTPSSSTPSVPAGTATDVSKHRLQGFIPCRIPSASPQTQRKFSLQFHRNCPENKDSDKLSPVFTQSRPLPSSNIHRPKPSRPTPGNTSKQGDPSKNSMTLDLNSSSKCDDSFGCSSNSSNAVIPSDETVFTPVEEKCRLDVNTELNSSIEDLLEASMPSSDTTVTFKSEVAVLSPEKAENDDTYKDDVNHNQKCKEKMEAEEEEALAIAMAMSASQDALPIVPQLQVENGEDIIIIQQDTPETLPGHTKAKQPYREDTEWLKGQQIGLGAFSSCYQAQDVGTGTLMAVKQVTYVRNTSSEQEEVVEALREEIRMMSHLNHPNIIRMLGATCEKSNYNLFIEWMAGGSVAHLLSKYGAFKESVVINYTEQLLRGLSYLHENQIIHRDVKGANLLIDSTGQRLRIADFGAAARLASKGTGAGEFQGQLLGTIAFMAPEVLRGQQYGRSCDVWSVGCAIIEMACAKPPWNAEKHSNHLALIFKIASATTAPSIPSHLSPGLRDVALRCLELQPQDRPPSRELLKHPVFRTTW

The inhibition is the relative decrease from the control value, in per cent. In general, IC50 refers to the concentration that gives 50% inhibition. As usually defined, the logD is lipophilicity at a set pH, counting ionised and neutral species. The low end stands for a more hydrophilic compound, the high end for a more lipophilic compound. In general, solubility refers to the dissolved amount per volume that the medium holds. A higher solubility goes with a readily soluble substance. For `Cc1cc(Nc2nccc(Nc3ccc4nc[nH]c4c3)n2)ccc1N1CCN(C)CC1`, the inhibition at 0.5 h, 1 µM stood at 108% in [1]; 2.9% in data set [2]; 71% in data set [4]; 57.3% in data set [5]; 35.4% in [6]; 57.8% in [7]. Also, the inhibition at 0.5 h, 1 µM was 44.4% in data set [8], 63.5% in [10] and 15.7% against Aurora kinase A. The IC50 is 0.42 µM in the data set on Plasmodium falciparum and 15 µM with HepG2. The Papp at 5 h, 10 µM in data set [3] was found to be 0.02 ×10⁻⁶ cm/s. Further, the CLH in data set [9] came out at 1.8 mL/min/g. Besides, the logD at 6 h in data set [11] turned out to be 2.9. Besides, the solubility in data set [12] was 16 µM (≈ 6.63 µg/mL). Besides, the selectivity ratio in data set [13] is 36.

For `CN1CCN(c2ccc(Nc3ncc(C#N)c(Nc4ccccc4C(N)=O)n3)cc2)CC1`, in the data set with Plasmodium falciparum, the IC50 was found to be 0.04 µM. For the same compound, in data set [14], the cytotoxicity came out at 43%.

On to `Cc1cccc(Nc2ncc([N+](=O)[O-])c(Nc3ccc4nc[nH]c4c3)n2)c1`, for which the inhibition at 0.5 h, 1 µM in data set [1] worked out at 76.7%; in data set [2], 27.9%; in data set [4], 69.8%; in data set [5], 25.3%; in data set [6] it was 83.8%; in [7], 54.9%. Moreover, the inhibition at 0.5 h, 1 µM in [8] worked out at 43.2%; in data set [10], 91%; against Aurora kinase A, 15.6%. Further, the results for the half-inhibitory concentration (IC50) in the data set with Plasmodium falciparum and with HepG2 were 0.78 µM and 22 µM, respectively. Moreover, in data set [3], the Papp at 5 h, 10 µM is 3.8 ×10⁻⁶ cm/s. Moreover, the CLH in data set [9] was determined as 19 mL/min/g. For the same compound, in data set [11], the logD at 6 h stood at 3.2. In addition, in data set [12], the solubility came out at 1 µM (≈ 0.361 µg/mL). Besides, the selectivity ratio in data set [13] worked out at 28.

Turning to `CC(=O)c1ccc(NC(=O)Nc2ccc(N(C)c3ccnc(Nc4cccc(CS(C)(=O)=O)c4)n3)cc2)cc1`, the half-inhibitory concentration (IC50) with Plasmodium falciparum is 0.12 µM. Also, the cytotoxicity in data set [14] is 86%.

As for `CN1CCN(c2ccc(Nc3nccc(Nc4ccc5nc[nH]c5c4)n3)cc2)CC1`, the inhibition at 0.5 h, 1 µM in [1] came to 89.3%; in [2] it was 7.9%; in data set [4], 91.3%; in [5], 85%; in [6] it was 41.6%; in data set [7], 69.2%. Also, the figures for the inhibition at 0.5 h, 1 µM (in data set [8]; in [10]; on Aurora kinase A) were 47.9%, 75.9% and 20.6%, respectively. Moreover, the IC50 was 0.66 µM with Plasmodium falciparum and greater than 25 µM in the data set on HepG2. Further, the Papp at 5 h, 10 µM in [3] was found to be 0.02 ×10⁻⁶ cm/s. In addition, the CLH in data set [9] worked out at 0.8 mL/min/g. This compound showed a logD at 6 h in [11] of 2.3. In addition, the solubility in [12] was 124 µM (≈ 49.7 µg/mL). For the same compound, the selectivity ratio in data set [13] was greater than 38.

For the origin of these results see ChEMBL document CHEMBL4808251, “Preparation, biological & cheminformatics-based assessment of N2,N4-diphenylpyrimidine-2,4-diamine as potential Kinase-targeted antimalarials” (Bioorg Med Chem, 2021).
